Drawing on US11414406B2, “Antagonists of the muscarinic acetylcholine receptor M4” (Vanderbilt University, priority 2018, dated 2022), this text covers remaining activity and IC50 for 19 compounds.

Where two headings read alike, the source gives them in different places.

The target of this assay is T1, Human M4 (Homo sapiens, UniProt P08173).
T1 construct: expressed in transfected cells
T1 sequence (P08173 1-479): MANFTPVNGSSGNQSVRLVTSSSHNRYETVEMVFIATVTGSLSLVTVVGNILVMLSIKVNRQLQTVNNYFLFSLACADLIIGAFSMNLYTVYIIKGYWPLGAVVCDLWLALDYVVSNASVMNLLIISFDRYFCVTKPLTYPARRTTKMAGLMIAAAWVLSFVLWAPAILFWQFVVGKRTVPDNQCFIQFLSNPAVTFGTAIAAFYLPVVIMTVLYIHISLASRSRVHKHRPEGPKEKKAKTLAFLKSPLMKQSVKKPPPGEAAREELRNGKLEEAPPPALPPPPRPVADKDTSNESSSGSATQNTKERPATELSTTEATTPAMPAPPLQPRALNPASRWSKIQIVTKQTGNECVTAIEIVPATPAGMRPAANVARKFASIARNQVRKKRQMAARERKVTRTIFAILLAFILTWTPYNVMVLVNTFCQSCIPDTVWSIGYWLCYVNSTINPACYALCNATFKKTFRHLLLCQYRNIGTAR
The assay can be described thus: mAChR M4 cell-based functional assay (calcium flux, decrease of EC80 acetylcholine response). As to conditions: for IC50: decrease of response to EC80 acetylcholine. The method, then:
Human M4 cDNA, along with the chimeric G protein Gqi5, were transfected into Chinese hamster ovary (CHO-K1) cells purchased from the American Type Culture Collection using Lipofectamine2000. M4/Gqi5/CHO cells were grown in Ham's F-12 medium containing 10% heat-inactivated fetal bovine serum (FBS), 20 mM HEPES, 500 μg/mL G418 sulfate, and 200 μg/mL Hygromycin B.
For high throughput measurement of agonist-evoked increases in intracellular calcium, CHO-K1 cells stably expressing muscarinic receptors were plated in growth medium lacking G418 and hygromycin at 15,000 cells/20 μL/well in Greiner 384-well black-walled, tissue culture (TC)-treated, clear-bottom plates (VWR). Cells were incubated overnight at 37° C. and 5% CO2. The next day, cells were washed using an ELX 405 (BioTek) with assay buffer; the final volume was then aspirated to 20 μL. Next, 20 μL of a 2.3 μM stock of Fluo-4/acetoxymethyl ester (Invitrogen, Carlsbad, Calif.), prepared as a 2.3 mM stock in DMSO and mixed in a 1:1 ratio with 10% (w/v) Pluronic F-127 and diluted in assay buffer, was added to the wells and the cell plates were incubated for 50 min at 37° C. and 5% CO2. Dye was removed by washing with the ELX 405 and the final volume was aspirated to 20 μL. Compound master plates were formatted in a 10 point concentration-response curve (CRC) format (1:3 dilutions) in 100% DMSO with a starting concentration of 10 or 1 mM using a BRAVO liquid handler (Agilent). Test compound CRCs were then transferred to daughter plates (240 nL) using the Echo acoustic plate reformatter (Labcyte, Sunnyvale, Calif.) and then diluted into assay buffer (40 μL) to a 2× stock using a Thermo Fisher Combi (Thermo Fisher Scientific, Waltham, Mass.).
Calcium flux was measured using the Functional Drug Screening System (FDSS) 6000 or 7000 (Hamamatsu Corporation, Tokyo, Japan) as an increase in the fluorescent static ratio. Compounds were applied to cells (20 μL, 2×) using the automated system of the FDSS at 2 seconds into the protocol and the data were collected at 1 Hz. At 143 s, 10 μL of an EC20 concentration of the muscarinic receptor agonist acetylcholine was added (5×), followed by the addition of 12 μL of an EC80 concentration of acetylcholine at the 268 s time point (5×). Agonist activity was analyzed as a concentration-dependent increase in calcium mobilization upon compound addition. Positive allosteric modulator activity was analyzed as a concentration-dependent increase in the EC20 acetylcholine response. Antagonist activity was analyzed as a concentration-dependent decrease in the EC80 acetylcholine response; for the purposes of the tables herein, an IC50 (inhibitory concentration 50) was calculated as a concentration-dependent decrease of the response elicited by an EC80 concentration of acetylcholine. Concentration-response curves were generated using a four-parameter logistical equation in XLFit curve fitting software (HMS, Bridgewater, N.J.) for Excel (Microsoft, Redmond, Wash.) or Prism (GraphPad Software, Inc., San Diego, Calif.) or the Dotmatics software platform (Dotmatics, Bishop's Stortford, UK).
Compounds were synthesized as described above. Activity (IC50 and Emin) was determined in the inAChR M4 cell-based functional assay as described above and the data are shown in Table 2. The compound numbers correspond to the compound numbers used in Examples 1 and 2 and Tables 1 and 2.
(In general: Calcium assays in cells follow changes in intracellular calcium, usually with a dye or a luminescent sensor.)

The mark [1] stands for this setting: CHO-K1, read-out: Emin (% ACh maximum at 30 μM).
Setting [2] is: M4/Gqi5/CHO-K1 cells, % ACh maximum at 30 μM, read-out: Emin (% ACh maximum at 30 μM).

Consider `Cc1nn(C)cc1-c1ccc(N[C@H]2[C@@H]3CN(CCC(C)(C)C)C[C@@H]32)nn1` [Compound 1, (1R,5S,6s)-3-(3,3-dimethylbutyl)-N-[6-(1,3-dimethylpyrazol-4-yl)pyridazin-3-yl]-3-azabicyclo[3.1.0]hexan-6-amine], for which the remaining activity at 30 µM under setting [1] worked out at 4.8%. The IC50 (commonly the concentration at which inhibition is half-maximal) (M4/Gqi5/CHO-K1 cells) is 280 nM.
On to `Cc1nn(C)cc1-c1ccc(N[C@H]2[C@@H]3CN(CC4CC5C=CC4C5)C[C@@H]32)nn1` (stereo partly drawn) [Compound 2, (1R,5S,6s)-3-(5-bicyclo[2.2.1]hept-2-enylmethyl)-N-[6-(1,3-dimethylpyrazol-4-yl)pyridazin-3-yl]-3-azabicyclo[3.1.0]hexan-6-amine], for which the remaining activity at 30 µM under setting [2] stood at 5%. For the same compound, where the note is “M4/Gqi5/CHO-K1 cells”, the IC50 came to 100 nM.
For `Cc1nn(C)cc1-c1ccc(N[C@H]2[C@@H]3CN(CC(C)C(C)(C)C)C[C@@H]32)nn1` (stereo partly drawn) [Compound 3, (1R,5S,6s)-N-[6-(1,3-dimethylpyrazol-4-yl)pyridazin-3-yl]-3-(2,3,3-trimethylbutyl)-3-azabicyclo[3.1.0]hexan-6-amme], the remaining activity at 30 µM under setting [2] came to 24%.
As to `Cc1nn(C)cc1-c1ccc(CN[C@H]2[C@@H]3CN(CCC(C)(C)C)C[C@@H]32)nn1` [Compound 4, (1R,5S,6s)-N-((6-(1,3-dimethyl-1H-pyrazol-4-yl)pyridazin-3-yl)methyl)-3-(3,3-dimethylbutyl)-3-azabicyclo[3.1.0]hexan-6-amine], the remaining activity at 30 µM under setting [1] was 36.7%.
Regarding `CC(C)(C)CCN1C[C@@H]2[C@H](C1)[C@H]2NCc1ccc(-c2cc(F)ccc2Cl)nn1` [Compound 5, (1R,5S,6s)-N-((6-(2-chloro-5-fluoro-phenyl)pyridazin-3-yl)methyl)-3-(3,3-dimethylbutyl)-3-azabicyclo[3.1.0]hexan-6-amine], the remaining activity at 30 µM under setting [2] was 20.4%.
The same measure, in the same setting: for `Fc1ccc(Cl)c(-c2ccc(CN[C@H]3[C@@H]4CN(CC5CCCCC5)C[C@@H]43)nn2)c1` [Compound 6, (1R,5S,6s)-N-((6-(2-chloro-5-fluoro-phenyl)pyridazin-3-yl)methyl)-3-(cyclohexylmethyl)-3-azabicyclo[3.1.0]hexan-6-amine] the value was 17.8%.
Same read-out and setting: the same measure for `Cc1nn(C)cc1-c1ccc(CN[C@H]2[C@@H]3CN(CC4CCCCC4)C[C@@H]32)nn1` [Compound 7, (1R,5S,6s)-3-(cyclohexylmethyl)-N-((6-(1,3-dimethylpyrazol-4-yl)pyridazin-3-yl)methyl)-3-azabicyclo[3.1.0]hexan-6-amine]: 32.5%.
On the same count and under the same terms, the same measure for `Fc1ccccc1-c1ccc(N[C@H]2[C@@H]3CN(CC4CCOCC4)C[C@@H]32)nn1` [Compound 8, (1R,5S,6s)-N-[6-(2-fluorophenyl)pyridazin-3-yl]-3-(tetrahydropyran-4-ylmethyl)-3-azabicyclo[3.1.0]hexan-6-amine]: 38%.
As for `Fc1cccc(-c2ccc(N[C@H]3[C@@H]4CN(CC5CCOCC5)C[C@@H]43)nn2)c1` [Compound 9, (1R,5S,6s)-N-[6-(3-fluorophenyl)pyridazin-3-yl]-3-(tetrahydropyran-4-ylmethyl)-3-azabicyclo[3.1.0]hexan-6-amine], the remaining activity at 30 µM under setting [2] was 25%.
Still for that read-out and setting: the same measure for `Fc1ccc(-c2ccc(N[C@H]3[C@@H]4CN(CC5CCOCC5)C[C@@H]43)nn2)cc1` [Compound 10, (1R,5S,6s)-N-[6-(4-fluorophenyl)pyridazin-3-yl]-3-(tetrahydropyran-4-ylmethyl)-3-azabicyclo[3.1.0]hexan-6-amine]: 37%.
Take `Clc1ccccc1-c1ccc(N[C@H]2[C@@H]3CN(CC4CCOCC4)C[C@@H]32)nn1` [Compound 11, (1S,5R,6s)-N-[6-(2-chlorophenyl)pyridazin-3-yl]-3-(tetrahydropyran-4-ylmethyl)-3-azabicyclo[3.1.0]hexan-6-amine]: the remaining activity at 30 µM under setting [2] was found to be 11%. For the same compound, the IC50 (M4/Gqi5/CHO-K1 cells) was 2960 nM.
On the same counts, the results for `Fc1ccc(Cl)c(-c2ccc(N[C@H]3[C@@H]4CN(CC5CCOCC5)C[C@@H]43)nn2)c1` [Compound 12, (1R,5S,6s)-N-[6-(2-chloro-5-fluoro-phenyl)pyridazin-3-yl]-3-(tetrahydropyran-4-ylmethyl)-3-azabicyclo[3.1.0]hexan-6-amine] are 8% and 1110 nM.
The like results for `Fc1cccc(-c2ccc(N[C@H]3[C@@H]4CN(CC5CCOCC5)C[C@@H]43)nn2)c1Cl` [Compound 13, (1R,5S,6s)-N-[6-(2-chloro-3-fluoro-phenyl)pyridazin-3-yl]-3-(tetrahydropyran-4-ylmethyl)-3-azabicyclo[3.1.0]hexan-6-amine] were, in that order, 8% and 1850 nM.
In the case of `Fc1ccc(-c2ccc(N[C@H]3[C@@H]4CN(CC5CCOCC5)C[C@@H]43)nn2)c(Cl)c1` [Compound 14, (1R,5S,6s)-N-[6-(2-chloro-4-fluoro-phenyl)pyridazin-3-yl]-3-(tetrahydropyran-4-ylmethyl)-3-azabicyclo[3.1.0]hexan-6-amine], under setting [2], the remaining activity at 30 µM came out at 12%.
For the compound `Fc1cccc(Cl)c1-c1ccc(N[C@H]2[C@@H]3CN(CC4CCOCC4)C[C@@H]32)nn1` [Compound 15, (1R,5S,6s)-N-[6-(2-chloro-6-fluoro-phenyl)pyridazin-3-yl]-3-(tetrahydropyran-4-ylmethyl)-3-azabicyclo[3.1.0]hexan-6-amine], the remaining activity at 30 µM under setting [2] came to 14%. Besides, the IC50 (M4/Gqi5/CHO-K1 cells) came to 3180 nM.
In the case of `Fc1ccc(F)c(-c2ccc(N[C@H]3[C@@H]4CN(CC5CCOCC5)C[C@@H]43)nn2)c1` [Compound 16, (1R,5S,6s)-N-[6-(2,5-difluorophenyl)pyridazin-3-yl]-3-(tetrahydropyran-4-ylmethyl)-3-azabicyclo[3.1.0]hexan-6-amine], the remaining activity at 30 µM under setting [2] amounted to 28%.
Turning to `c1cnc2ccc(-c3ccc(N[C@H]4[C@@H]5CN(CC6CCOCC6)C[C@@H]54)nn3)cc2c1` [Compound 17, (1R,5S,6s)-N-[6-(6-quinolyl)pyridazin-3-yl]-3-(tetrahydropyran-4-ylmethyl)-3-azabicyclo[3.1.0]hexan-6-amine], the remaining activity at 30 µM under setting [2] turned out to be 13%. Moreover, the IC50 (M4/Gqi5/CHO-K1 cells) was 3760 nM.
Take `Cn1cc2cc(-c3ccc(N[C@H]4[C@@H]5CN(CC6CCOCC6)C[C@@H]54)nn3)ccc2n1` [Compound 18, (1R,5S,6s)-N-[6-(2-methylindazol-5-yl)pyridazin-3-yl]-3-(tetrahydropyran-4-ylmethyl)-3-azabicyclo[3.1.0]hexan-6-amine]: under setting [2], the remaining activity at 30 µM worked out at 27%.
Same read-out and setting: for `CC(=O)Nc1ccc(-c2ccc(N[C@H]3[C@@H]4CN(CC5CCOCC5)C[C@@H]43)nn2)cc1` [Compound 19, N-[4-[6-[[(1R,5S,6s)-3-(tetrahydropyran-4-ylmethyl)-3-azabicyclo[3.1.0]hexan-6-yl]amino]pyridazin-3-yl]phenyl]acetamide] the value was 39%.
